Reference: patent publication US10155259B2 (Merck Sharp & Dohme B.V., priority 2011, dated 2018)
pIC50: −log10 of the molar value.

Target: T1, human FSH receptor (Homo sapiens, UniProt P23945)
T1 construct: expressed in transfected cells; host or cells: CHO cells, stably transfected; cotransfected with CRE-luciferase reporter
T1 sequence (P23945 18-695): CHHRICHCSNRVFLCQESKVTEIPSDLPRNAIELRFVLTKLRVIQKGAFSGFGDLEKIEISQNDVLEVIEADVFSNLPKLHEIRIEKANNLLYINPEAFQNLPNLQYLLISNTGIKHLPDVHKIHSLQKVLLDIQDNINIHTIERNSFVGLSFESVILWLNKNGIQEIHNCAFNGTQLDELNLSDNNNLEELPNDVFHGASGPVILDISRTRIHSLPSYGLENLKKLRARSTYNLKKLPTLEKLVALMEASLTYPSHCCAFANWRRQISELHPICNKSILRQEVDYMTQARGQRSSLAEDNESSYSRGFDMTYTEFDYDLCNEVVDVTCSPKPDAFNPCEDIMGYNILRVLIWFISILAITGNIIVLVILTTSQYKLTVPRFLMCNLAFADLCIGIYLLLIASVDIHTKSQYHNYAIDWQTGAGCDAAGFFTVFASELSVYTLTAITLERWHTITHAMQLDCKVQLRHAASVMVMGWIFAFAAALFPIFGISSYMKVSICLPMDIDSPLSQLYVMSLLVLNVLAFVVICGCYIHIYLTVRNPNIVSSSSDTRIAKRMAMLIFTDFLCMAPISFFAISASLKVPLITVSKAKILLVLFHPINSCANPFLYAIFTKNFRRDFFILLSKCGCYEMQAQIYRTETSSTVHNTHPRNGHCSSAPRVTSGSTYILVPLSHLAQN
Assay: Antagonistic activity of compounds at the human FSH receptor expressed in CHO cells (CRE-luciferase reporter)
Type: cell-based
Settings: CHO cells stably transfected with human FSH receptor and CRE/luciferase reporter; together with 49 μM recFSH; 4 hours incubation; 1% DMSO; read-out: IC50 (concentration of test compound causing half-maximal inhibition of the maximally attainable inhibition of the luciferase stimulation)
Protocol: Antagonistic Activity of Compounds at the Human FSH Receptor Expressed in CHO Cells
Antagonistic activity of the compounds at the human FSH receptor was determined in Chinese Hamster Ovary (CHO) cells stably transfected with the human FSH receptor and cotransfected with a cAMP responsive element (CRE)/promotor directing the expression of a firefly luciferase reporter gene. Binding of the compounds to the Gs protein-coupled FSH receptor will result in an increase of cAMP, which in turn will induce an increased transactivation of the luciferase reporter. The cells (7,500 cells/well of a 384 well plate) were incubated in Dulbecco' minimal essential F12 modified medium (Invitrogen), supplemented with 1 μg/ml bovine insulin, 5 μg/ml human apo-transferrin, 100 U/ml penicillin G and 100 μg/ml streptomycin with the test compounds (concentration between 0.316 nM and 10.0 μM) in duplicate together with […] (which, at this concentration in the absence of test compound, induces 80% of the maximal luciferase stimulation) in a humidified atmosphere (95%) at 5-7% CO2 and 37° C. The final concentration of DMSO was 1%. After 4 hours of incubation, plates were allowed to adjust to room temperature for 1 hour. Then, SteadyLite (PerkinElmer) solution was added to the wells and cells were allowed to lyse for at least 1 hour at room temperature. Subsequently, luciferase activity was measured in a luminescence counter. The signal is expressed as counts per second (cps). The IC50 (concentration of test compound causing half-maximal (50%) inhibition of the maximally attainable inhibition of the luciferase stimulation by the compound) and efficacy of the compounds were determined using the software program MathIQ (version 2.3, ID Business Solutions Limited).

Compound | pIC50
COc1cc2c(cc1OC(C)C)-c1cc(C(=O)N[C@@H](CO)Cc3c[nH]c4ccccc34)c(-c3ccc(N)nc3)n1CC2 [Example 15, (R)-3-(6-aminopyridin-3-yl)-N-(1-hydroxy-3-(1H-indol-3-yl)propan-2-yl)-9-isopropoxy-8-methoxy-5,6-dihydropyrrolo[2,1-a]isoquinoline-2-carboxamide] | 6.00 to 7.00
COc1cc2c(cc1OC)-c1nc(C(=O)N[C@@H](CO)Cc3c[nH]c4ccccc34)c(-c3cccc(F)c3)n1CC2 [Example 66, (R)-3-(3-fluorophenyl)-N-(1-hydroxy-3-(1H-indol-3-yl)propan-2-yl)-8,9-dimethoxy-5,6-dihydroimidazo[2,1-a]isoquinoline-2-carboxamide] | 6.00 to 7.00
COc1cc2c(cc1OC)-c1cc(C(=O)N[C@@H](CO)Cc3c[nH]c4ccccc34)c(-c3ccccn3)n1CC2 [Example 11] | > 7.00
COc1cc2c(cc1OC)-c1c(C)c(C(=O)N[C@@H](CO)Cc3c[nH]c4ccccc34)c(-c3ccccc3)n1CC2 [Example 1, (R)—N-(1-hydroxy-3-(1H-indol-3-yl)propan-2-yl)-8,9-dimethoxy-1-methyl-3-phenyl-5,6-dihydropyrrolo[2,1-a]isoquinoline-2-carboxamide] | 6.00 to 7.00
COc1cc2c(cc1OC)-c1cc(C(=O)N[C@@H](CO)Cc3c[nH]c4ccccc34)c(-c3ccc([N+](=O)[O-])cc3)n1CC2 [Example 9, (R)—N-(1-hydroxy-3-(1H-indol-3-yl)propan-2-yl)-8,9-dimethoxy-3-(4-nitrophenyl)-5,6-dihydropyrrolo[2,1-a]isoquinoline-2-carboxamide] | 6.00 to 7.00
COc1cc2c(cc1O)-c1cc(C(=O)N[C@@H](CO)Cc3c[nH]c4ccccc34)c(-c3cccc(F)c3)n1CC2 [Example 31, (R)-3-(3-fluorophenyl)-9-hydroxy-N-(1-hydroxy-3-(1H-indol-3-yl)propan-2-yl)-8-methoxy-5,6-dihydropyrrolo[2,1-a]isoquinoline-2-carboxamide] | 6.00 to 7.00
COc1cc2c(cc1C(=O)N1CCOCC1)-c1cc(C(=O)N[C@@H](CO)Cc3c[nH]c4ccccc34)c(-c3cccc(F)c3)n1CC2 [Example 47, (R)-3-(3-fluorophenyl)-N-(1-hydroxy-3-(1H-indol-3-yl)propan-2-yl)-8-methoxy-9-(morpholine-4-carbonyl)-5,6-dihydropyrrolo[2,1-a]isoquinoline-2-carboxamide] | 6.00 to 7.00
COc1cc2c(cc1OC(C)C)-c1cc(C(=O)N[C@@H](CO)Cc3c[nH]c4ccccc34)c(C(=O)C(C)(C)C)n1CC2 [Example 25, (R)—N-(1-hydroxy-3-(1H-indol-3-yl)propan-2-yl)-9-isopropoxy-8-methoxy-3-pivaloyl-5,6-dihydropyrrolo[2,1-a]isoquinoline-2-carboxamide] | > 7.00
COc1cc2c(cc1-c1cccnc1)-c1cc(C(=O)N[C@@H](CO)Cc3c[nH]c4ccccc34)c(-c3cccc(F)c3)n1CC2 [Example 42, (R)-3-(3-fluorophenyl)-N-(1-hydroxy-3-(1H-indol-3-yl)propan-2-yl)-8-methoxy-9-(pyridin-3-yl)-5,6-dihydropyrrolo[2,1-a]isoquinoline-2-carboxamide] | > 7.00
CCc1cc2c(cc1OC)CCn1c-2cc(C(=O)N[C@@H](CO)Cc2c[nH]c3ccccc23)c1-c1cccc(F)c1 [Example 43, (R)-9-ethyl-3-(3-fluorophenyl)-N-(1-hydroxy-3-(1H-indol-3-yl)propan-2-yl)-8-methoxy-5,6-dihydropyrrolo[2,1-a]isoquinoline-2-carboxamide] | > 7.00
COc1cc2c(cc1OCCN(C)C)-c1cc(C(=O)N[C@@H](CO)Cc3c[nH]c4ccccc34)c(-c3cccc(F)c3)n1CC2 [Example 39, (R)-9-(2-(dimethylamino)ethoxy)-3-(3-fluorophenyl)-N-(1-hydroxy-3-(1H-indol-3-yl)propan-2-yl)-8-methoxy-5,6-dihydropyrrolo[2,1-a]isoquinoline-2-carboxamide] | 6.00 to 7.00

Continued, values first:

pIC50 | Compound
> 7.00 | COc1cc2c(cc1OC(C)C)-c1cc(C(=O)N[C@@H](CO)Cc3c[nH]c4ccccc34)c(-c3ccco3)n1CC2 [Example 19, (R)-3-(furan-2-yl)-N-(1-hydroxy-3-(1H-indol-3-yl)propan-2-yl)-9-isopropoxy-8-methoxy-5,6-dihydropyrrolo[2,1-a]isoquinoline-2-carboxamide]
> 7.00 | COc1cc2c(cc1OCC1CC1)-c1cc(C(=O)N[C@@H](CO)Cc3c[nH]c4ccccc34)c(-c3cccc(F)c3)n1CC2 [Example 36, (R)-9-(cyclopropylmethoxy)-3-(3-fluorophenyl)-N-(1-hydroxy-3-(1H-indol-3-yl)propan-2-yl)-8-methoxy-5,6-dihydropyrrolo[2,1-a]isoquinoline-2-carboxamide]
> 7.00 | COc1cc2c(cc1-c1cnn(C)c1)-c1cc(C(=O)N[C@@H](CO)Cc3c[nH]c4ccccc34)c(-c3cccc(F)c3)n1CC2 [Example 52, (R)-3-(3-fluorophenyl)-N-(1-hydroxy-3-(1H-indol-3-yl)propan-2-yl)-8-methoxy-9-(1-methyl-1H-pyrazol-4-yl)-5,6-dihydropyrrolo[2,1-a]isoquinoline-2-carboxamide]
> 7.00 | COc1cc2c(cc1OC)-c1cc(C(=O)N[C@@H](CO)Cc3c[nH]c4ccccc34)c(-c3ccc(F)cc3)n1CC2 [Example 6, (R)—N-(1-hydroxy-3-(1H-indol-3-yl)propan-2-yl)-8,9-dimethoxy-3-(4-fluorophenyl)-5,6-dihydropyrrolo[2,1-a]isoquinoline-2-carboxamide]
> 7.00 | COc1cc2c(cc1OC(C)C)-c1cc(C(=O)N[C@@H](CO)Cc3c[nH]c4ccccc34)c(-c3cccc(C)c3)n1CC2 [Example 14, (R)—N-(1-hydroxy-3-(1H-indol-3-yl)propan-2-yl)-9-isopropoxy-8-methoxy-3-m-tolyl-5,6-dihydropyrrolo[2,1-a]isoquinoline-2-carboxamide]
> 7.00 | COc1cc2c(cc1-c1cccnc1OC)-c1cc(C(=O)N[C@@H](CO)Cc3c[nH]c4ccccc34)c(-c3cccc(F)c3)n1CC2 [Example 53, 3-(3-fluorophenyl)-N—((R)-1-hydroxy-3-(1H-indol-3-yl)propan-2-yl)-8-methoxy-9-(2-methoxypyridin-3-yl)-5,6-dihydropyrrolo[2,1-a]isoquinoline-2-carboxamide]
> 7.00 | COCCOc1cc2c(cc1OC)CCn1c-2cc(C(=O)N[C@@H](CO)Cc2c[nH]c3ccccc23)c1-c1cccc(F)c1 [Example 33, (R)-3-(3-fluorophenyl)-N-(1-hydroxy-3-(1H-indol-3-yl)propan-2-yl)-8-methoxy-9-(2-methoxyethoxy)-5,6-dihydropyrrolo[2,1-a]isoquinoline-2-carboxamide]
> 7.00 | COc1cc2c(cc1C(C)C(C)C)-c1cc(C(=O)N[C@@H](CO)Cc3c[nH]c4ccccc34)c(-c3cccc(F)c3)n1CC2 (stereo partly drawn) [Example 44, 3-(3-fluorophenyl)-N—((R)-1-hydroxy-3-(1H-indol-3-yl)propan-2-yl)-8-methoxy-9-(3-methylbutan-2-yl)-5,6-dihydropyrrolo[2,1-a]isoquinoline-2-carboxamide]
> 7.00 | CCCC(C)Oc1cc2c(cc1OC)CCn1c-2cc(C(=O)N[C@@H](CO)Cc2c[nH]c3ccccc23)c1-c1cccc(F)c1 (stereo partly drawn) [Example 37, 3-(3-fluorophenyl)-N—((R)-1-hydroxy-3-(1H-indol-3-yl)propan-2-yl)-8-methoxy-9-(pentan-2-yloxy)-5,6-dihydropyrrolo[2,1-a]isoquinoline-2-carboxamide]
> 7.00 | COc1cc2c(cc1-c1cncnc1)-c1cc(C(=O)N[C@@H](CO)Cc3c[nH]c4ccccc34)c(-c3cccc(F)c3)n1CC2 [Example 50, (R)-3-(3-fluorophenyl)-N-(1-hydroxy-3-(1H-indol-3-yl)propan-2-yl)-8-methoxy-9-(pyrimidin-5-yl)-5,6-dihydropyrrolo[2,1-a]isoquinoline-2-carboxamide]
